From patent US10647653B2, “Crystal of monovalent cation salt of 3-hydroxyisovaleric acid and process for producing the crystal” (KYOWA HAKKO BIO CO., LTD., priority 2015, dated 2020)
Like-named read-outs stand apart in the source and are kept apart here.

Assays:
[1] = Mixing with 0.2 M phosphate buffer, light transmittance (660 nm) to evaluate insoluble salt formation; assay type: physicochemical
Description: A 100 g/L solution, in terms of free form, was prepared using the crystal of monovalent cation salt nonhydrate of HMB, obtained in each of Examples 2, 5 and 7, and mixed with 0.2 M phosphate buffer (pH: 6.80) in an arbitrary mixing ratio. The solution after mixing was measured for the light transmittance (660 nm) to evaluate the presence or absence of insoluble salt formation. In Table 13, “-” indicates unevaluated.

[2] = assay type: physicochemical
Description: The sodium HMB nonhydrate obtained in Example 2 was mixed with a glucose-amino acids-electrolytes infusion solution for peripheral vain nutrition [pH: about 6.7; Product Name: Aminofluid Infusion Solution (Otsuka Pharmaceutical Factory, Inc.)] to obtain 0, 0.11, 0.21 and 0.42 weight/volume % solutions at final concentration in terms of free form. The light transmittance (660 nm) was measured by ultraviolet and visible spectrophotometer immediately after the mixing or 24 hours after being left at room temperature to evaluate the presence or absence of insoluble salt formation.

[3] = rat, in vivo
Description: The solution was continuously administered to a rat on which operative stress was incurred by intestinal tract scratch operation at a normal dose (240 mL/kg/day) for 3 days. On the final day of administration, urine was collected by 24-hour urine collection and measured for the urinary electrolyte concentration.

[4] = pH of aqueous solution of 100 g/L salt crystal in terms of free HMB; assay type: physicochemical
Description: As for pH, an aqueous solution of 100 g/L salt crystal in terms of free HMB was measured.

[5] = Measurement of solubility in water at room temperature (HMB concentration of supernatant by HPLC); assay type: physicochemical
Description: The crystal of monovalent cation salt nonhydrate of HMB, obtained in each of Examples 2, 5 and 7, was added at room temperature until it dissolved in water and after keeping the solution for a sufficient time under stirring, the supernatant containing no crystal was sampled and measured for the HMB concentration by using HPLC.

[6] = mixing ratio 0.33 Vol/Vol (aqueous 100 g/L HMB solution/0.2M phosphate buffer pH 6.80)
[7] = mixing ratio 0.57 Vol/Vol (aqueous 100 g/L HMB solution/0.2M phosphate buffer pH 6.80)
[8] = HMB final concentration 0.11 weight/volume % in Aminofluid, 0 h after addition
[9] = HMB final concentration 0.11 weight/volume % in Aminofluid, 24 h after addition, room temperature
[10] = HMB final concentration 0.21 weight/volume % in Aminofluid, 0 h after addition
[11] = HMB final concentration 0.42 weight/volume % in Aminofluid, 24 h after addition, room temperature
[12] = mixing ratio 0.17 Vol/Vol (aqueous 100 g/L HMB solution/0.2M phosphate buffer pH 6.80)

| SMILES | Transmittance T % (660 nm) [1, 6] [%] | Transmittance T % (660 nm) [1, 7] [%] | Insoluble salt formation (in words) ([1]; mixing with phosphate buffer) | Insoluble salt formation (in words) [2] | Transmittance T % (660 nm) [2, 8] [%] | Transmittance T % (660 nm) [2, 9] [%] | Transmittance T % (660 nm) [2, 10] [%] | Transmittance T % (660 nm) [2, 11] [%] | Electrolyte abnormality (in words) [3] | Transmittance T % (660 nm) [1, 12] [%] | pH [4] | Insoluble salt formation (in words) [1] | Solubility [5] [mg/mL] | Solubility (in terms of free form) [5] [mg/mL] | Solubility in water compared to existing calcium salt (in words) [5] | also measured |
| --- | --- | --- | --- | --- | --- | --- | --- | --- | --- | --- | --- | --- | --- | --- | --- | --- |
| CC(C)(O)CC(=O)[O-].CC(C)(O)CC(=O)[O-].O.[Ca+2] [Calcium HMB hydrate, reference compound] | 0.02 | 0 | produces an insoluble salt | forms an insoluble salt | 100 | 70 | 90 | 20 | induces the increase in urinary calcium and the decrease in urinary phosphate excretion | – | – | – | – | – | – | Transmittance T % (660 nm) ([1]; mixing ratio 0.01 Vol/Vol (aqueous 100 g/L HMB solution/0.2M phosphate buffer pH 6.80)): 60% |
| CC(C)(O)CC(=O)[O-].[Na+] [Example 2, sodium HMB nonhydrate] | 100 | 100 | do not form an insoluble salt | does not form an insoluble salt | 100 | 100 | 100 | 100 | does not induce the above electrolyte abnormality | 100 | 7.9 | – | – | – | – | Transmittance T % (660 nm) ([2]; HMB final concentration 0.21 weight/volume % in Aminofluid, 24 h after addition, room temperature): 100%; Transmittance T % (660 nm) ([2]; HMB final concentration 0.42 weight/volume % in Aminofluid, 0 h after addition): 100%; Solubility ([5]; in water, room temperature): 729 mg/mL; Solubility in water compared to existing calcium salt (in words) ([5]; in water, room temperature): greatly enhanced in the solubility in water; Solubility (in terms of free form) ([5]; in water, room temperature, in terms of free HMB): 513 mg/mL |
| CC(C)(O)CC(=O)[O-].[K+] [Example 5, potassium HMB nonhydrate] | 100 | 100 | – | – | – | – | – | – | – | 100 | 7.9 | do not form an insoluble salt | 1011 | 764 | greatly enhanced in the solubility in water | – |
| CC(C)(O)CC(=O)O.N [Example 7, ammonium HMB nonhydrate] | 100 | 100 | – | – | – | – | – | – | – | 100 | 5.7 | do not form an insoluble salt | 660 | 577 | greatly enhanced in the solubility in water | – |
